In US20250082640A1, “Therapeutics for Hyponatremia and Polycystic Kidney Disease” (University of Cincinnati, priority 2021, published 2025):

Experiments:
[1] = test system: water channel aquaporin 2 (AQP2); details: rat kidney collecting duct system, high dose; cited from earlier work
Male Sprague Dawley rats = assay: Metabolic cage study of rats fed diet containing R2-ADN or adenine (Example 1, Table 1); format: in vivo, rat; details: for Urine osmolality, Average Baseline / Urine osmolality, Baseline Day 1 / Urine osmolality, Baseline Day 2: baseline before treatment; for Urine osmolality, Day 1: treatment day 1; for Urine osmolality, Day 2: treatment day 2; for Urine osmolality, Day 3: treatment day 3; for Urine osmolality, Day 4: treatment day 4; for Urine osmolality, Day 5: treatment day 5; for Urine osmolality, Day 6: treatment day 6
Excerpt: The effects of R2-ADN on these physiologic parameters are dose- and time-dependent.
In addition, the effects of adenine (ADN) were compared to those of R2-ADN on these physiologic parameters.
Male Sprague Dawley rats were placed in metabolic cages and fed powdered rodent chow with access to distilled water ad libitum. After adjustment, baseline data were collected for 2 days and then rats were randomly divided into different groups. […]

salt transporter NKCC2 = details: rat kidney medullary thick ascending limb, high dose; cited from earlier work
Rats = assay: Metabolic cage study of rats fed diet supplemented with R3-AND or R4-AND (Example 2); format: in vivo, rat; details: for food intake / water intake / urine volume / urine osmolality: day 4, in diet (R4-ADN at 0.15% weight/weight); for food intake: vs control (FIG. 7A); for water intake: vs control (FIG. 7B); for urine volume: vs control (FIG. 7C); for urine osmolality: vs control (FIG. 7D)
[2] = test system: primary human hepatocytes; details: in vitro; cited from earlier work
45 strains of mice = details: single oral dose; cited from earlier work
[3] = rats of the 0.15% in diet group
[4] = rats of the 0.20% in diet group
[5] = rats of the 0.25% in diet group
[6] = rats, 0.15% in diet, adenine vs R2-ADN

Question: Which results are given for Nc1ncnc2nc[nH]c12 [ADN, adenine]?
Answer: AQP2 gene expression and protein abundance [1]: decreasing the gene expression and protein abundance; Urine osmolality, Average Baseline (Male Sprague Dawley rats; [3]): 1890 mosm/kg H2O; Urine osmolality, Baseline Day 1 (Male Sprague Dawley rats; [3]): 1848 mosm/kg H2O; Urine osmolality, Baseline Day 2 (Male Sprague Dawley rats; [3]): 1933 mosm/kg H2O; Urine osmolality, Average Baseline (Male Sprague Dawley rats; [4]): 1619 mosm/kg H2O; Urine osmolality, Baseline Day 1 (Male Sprague Dawley rats; [4]): 1638 mosm/kg H2O; Urine osmolality, Baseline Day 2 (Male Sprague Dawley rats; [4]): 1599 mosm/kg H2O; Urine osmolality, Average Baseline (Male Sprague Dawley rats; [5]): 1529 mosm/kg H2O; Urine osmolality, Baseline Day 1 (Male Sprague Dawley rats; [5]): 1648 mosm/kg H2O; Urine osmolality, Baseline Day 2 (Male Sprague Dawley rats; [5]): 1410 mosm/kg H2O; urine osmolality (Male Sprague Dawley rats; [6]): no effect; urine volume / daily water balance (Male Sprague Dawley rats; [6]): no effect; Urine osmolality, Day 1 (Male Sprague Dawley rats; rats, 0.15% in diet): 1750 mosm/kg H2O; Urine osmolality, Day 2 (Male Sprague Dawley rats; rats, 0.15% in diet): 1752 mosm/kg H2O; Urine osmolality, Day 3 (Male Sprague Dawley rats; rats, 0.15% in diet): 1770 mosm/kg H2O; Urine osmolality, Day 4 (Male Sprague Dawley rats; rats, 0.15% in diet): 1671 mosm/kg H2O; Urine osmolality, Day 5 (Male Sprague Dawley rats; rats, 0.15% in diet): 1700 mosm/kg H2O; Urine osmolality, Day 6 (Male Sprague Dawley rats; rats, 0.15% in diet): 1738 mosm/kg H2O; Urine osmolality, Day 1 (Male Sprague Dawley rats; rats, 0.20% in diet): 1475 mosm/kg H2O; Urine osmolality, Day 2 (Male Sprague Dawley rats; rats, 0.20% in diet): 1371 mosm/kg H2O; Urine osmolality, Day 3 (Male Sprague Dawley rats; rats, 0.20% in diet): 1354 mosm/kg H2O; Urine osmolality, Day 4 (Male Sprague Dawley rats; rats, 0.20% in diet): 1296 mosm/kg H2O; Urine osmolality, Day 5 (Male Sprague Dawley rats; rats, 0.20% in diet): 1279 mosm/kg H2O; Urine osmolality, Day 6 (Male Sprague Dawley rats; rats, 0.20% in diet): 1386 mosm/kg H2O; Urine osmolality, Day 1 (Male Sprague Dawley rats; rats, 0.25% in diet): 1198 mosm/kg H2O; Urine osmolality, Day 2 (Male Sprague Dawley rats; rats, 0.25% in diet): 848 mosm/kg H2O; Urine osmolality, Day 3 (Male Sprague Dawley rats; rats, 0.25% in diet): 976 mosm/kg H2O; Urine osmolality, Day 4 (Male Sprague Dawley rats; rats, 0.25% in diet): 1019 mosm/kg H2O; Urine osmolality, Day 5 (Male Sprague Dawley rats; rats, 0.25% in diet): 938 mosm/kg H2O; Urine osmolality, Day 6 (Male Sprague Dawley rats; rats, 0.25% in diet): 956 mosm/kg H2O; NKCC2 gene expression and protein abundance (salt transporter NKCC2): decreasing the gene expression and protein abundance

Question: For Nc1nc(Cl)nc2nc[nH]c12 [R2-ADN, 2-chloro-6-aminopurine], which “potency relative to adenine in effects on water handling / water loss by the kidney” value (Male Sprague Dawley rats; rats) is on record?
Answer: The value was “more potent than adenine”.

Question: What about the “Urine osmolality, Average Baseline” value (Male Sprague Dawley rats; [3]) of the same compound?
Answer: Its value is 1558 mosm/kg H2O.

Question: What about the “Urine osmolality, Baseline Day 1” value (Male Sprague Dawley rats; [3]) of the same compound?
Answer: The value was 1614 mosm/kg H2O.

Question: And the “Urine osmolality, Baseline Day 2” value (Male Sprague Dawley rats; [3])?
Answer: The value was 1502 mosm/kg H2O.

Question: What about the water intake (Male Sprague Dawley rats; rats, 0.075%, 0.15% or 0.25% in diet, 7 days, vs baseline and control, dose- and time-dependent (FIGS. 1A-1D)) of the same compound?
Answer: The water intake was “significant increase”.

Question: And the urine volume (Male Sprague Dawley rats; rats, 0.075%, 0.15% or 0.25% in diet, 7 days, vs baseline and control, dose- and time-dependent (FIGS. 2A-2D))?
Answer: The urine volume was “significant increase”.

Question: What about the urine osmolality (Male Sprague Dawley rats; rats, 0.075%, 0.15% or 0.25% in diet, 7 days, vs baseline or control, dose- and time-dependent (FIGS. 3A-3D)) of the same compound?
Answer: Its urine osmolality is “sharp reduction”.

Question: And the urine osmolality (Male Sprague Dawley rats; [6])?
Answer: Its urine osmolality is “significantly impaired”.

Question: And the “urine volume / daily water balance” value (Male Sprague Dawley rats; [6])?
Answer: The value was “significantly impaired”.

Question: What about the “Urine osmolality, Day 1” value (Male Sprague Dawley rats; rats, 0.15% in diet) of the same compound?
Answer: The value was 1085 mosm/kg H2O.

Question: And the “Urine osmolality, Day 2” value (Male Sprague Dawley rats; rats, 0.15% in diet)?
Answer: The value was 625 mosm/kg H2O.

Question: What about the “Urine osmolality, Day 3” value (Male Sprague Dawley rats; rats, 0.15% in diet) of the same compound?
Answer: Its value is 720 mosm/kg H2O.

Question: And the “Urine osmolality, Day 4” value (Male Sprague Dawley rats; rats, 0.15% in diet)?
Answer: The value was 649 mosm/kg H2O.

Question: And the “Urine osmolality, Day 5” value (Male Sprague Dawley rats; rats, 0.15% in diet)?
Answer: The value was 657 mosm/kg H2O.

Question: And the “Urine osmolality, Day 6” value (Male Sprague Dawley rats; rats, 0.15% in diet)?
Answer: Its value is 508 mosm/kg H2O.

Question: What about the “reduction in urine osmolality” value (Male Sprague Dawley rats; rats, 0.15% in diet, within the second day of treatment) of the same compound?
Answer: Its value is about 60%.

Question: And the food intake (Male Sprague Dawley rats; rats, high dose (0.25%), day 7 of feeding)?
Answer: The food intake was “significant reduction”.

Question: And the food intake (Male Sprague Dawley rats; rats, lower doses in diet (FIGS. 4A-4D))?
Answer: The food intake was “did not significantly alter”.

Question: What about the “changes in body weight” value (Male Sprague Dawley rats; rats, vs control group (FIGS. 5A-5D)) of the same compound?
Answer: Its value is “impacted the changes in body weight”.

Question: For O=C(Nc1ncnc2nc[nH]c12)c1ccccc1 [R3-AND, N6-benzoyladenine], which food intake (Rats) is on record?
Answer: The food intake was “none of the measured parameters”.

Question: What about the water intake (Rats) of the same compound?
Answer: Its water intake is “none of the measured parameters”.

Question: And the urine volume (Rats)?
Answer: The urine volume was “none of the measured parameters”.

Question: And the urine osmolality (Rats)?
Answer: Its urine osmolality is “none of the measured parameters”.

Question: Which “potency relative to adenine in increasing water loss by the kidney” value (Rats) does the source give for CN(C)c1ncnc2nc[nH]c12 [R4-ADN, 6-(Dimethylamino) purine] here?
Answer: The value was “more potent than adenine”.

Question: What about the food intake (Rats) of the same compound?
Answer: The food intake was “significant reduction”.

Question: And the water intake (Rats)?
Answer: The water intake was “significant increase”.

Question: And the urine volume (Rats)?
Answer: The urine volume was “significant increase”.

Question: And the urine osmolality (Rats)?
Answer: The urine osmolality was “sharp reduction”.

Question: Which results are given for Cc1ccccc1C(=O)Nc1ccc(C(=O)N2CCCC(O)c3cc(Cl)ccc32)c(C)c1 (stereo not shown) [tolvaptan]?
Answer: hepatocyte toxicity [2]: causes mitochondrial-induced apoptosis and oxidative stress; signs of liver injury mechanisms (45 strains of mice): signs of mitochondrial dysfunction, increased oxidative stress, and activation of immune response
